Patent US10188616B2, “Topical sphingosine-1-phosphate receptor agonist formulations and methods of using the same” (Teikoku Pharma USA, Inc., priority 2013, dated 2019)
Structures can show the parent of a compound that is named as a salt. Where two headings read alike, the source gives them in different places.

Legend:
[1] = Transdermal flux test of topical patch formulations (Franz cell); format: in vitro ADME
Source text: Human cadaver skin was used and epidermal layers (stratum corneum and epidermis) were separated from the full-thickness skin as skin membrane. Samples were die-cut with an arch punch to a final diameter of about 2.0 cm^2. The release liner was removed and the drug delivery system was placed on top of the epidermis/stratum corneum with the drug adhesive layer facing the stratum corneum. Gentle pressure was applied to effect good contact between the adhesive layer and stratum corneum. The donor and receptor sides of the Franz cell were clamped together and the receptor solution containing 0.9% sodium chloride, 1% Tween 80 and 0.01% Gentamicin was added to the Franz cell. The cells were kept at 33° C. for the duration of the experiment. Samples of the receptor solution were taken at regular intervals and the active agent concentration was measured by HPLC. The removed receptor solution was replaced with fresh solution to maintain the sink conditions. The flux was calculated from the slope of cumulative amounts of the drug in the receiver compartment versus time plot.

[2] = orally administered fingolimod HCl; cited from earlier work
[3] = Transdermal flux test of fingolimod HCl gel and solutions (Franz cell); format: in vitro ADME, human; conditions: during the first 8 hours of the experiments
Protocol: Human cadaver skin was used and epidermal layers (stratum corneum and epidermis) were separated from the full-thickness skin as skin membrane and placed on top of the Franz cell. The donor compartment chamber and receptor sides of the Franz cell were clamped together. A receptor solution containing 0.9% sodium chloride was added to the cell. Solution samples or gel samples were inserted into the donor compartment chamber on top of the epidermis/stratum corneum. The cells were kept at a temperature of 33° C. during the entire experiment. Samples of the receptor solution were taken at regular intervals and the active agent concentration was measured by HPLC. The removed receptor solution was replaced with fresh solution to maintain the sink conditions. The flux was calculated from the slope of the cumulative amounts of the drug in the receiver compartment versus time.

[4] = Solubility of fingolimod in patch adhesive; format: physicochemical

## CCCCCCCC/C=C\CCCCCCCC(=O)OCC(O)CO (centres unmarked) [GMO, Glyceryl monooleate]
[1]; excipient in fingolimod base patches in Duro-Tak 9301, human cadaver skin, FIG. 3
  effect on the fingolimod flux: enhancement effect

## CCCCCCCCCCCCOC(=O)C(C)O (centres unmarked) [LL, Lauryl Lactate]
[1]
  effect on the fingolimod flux: enhancement effect

## CCCCCCCCc1ccc(CCC(N)(CO)CO)cc1 [fingolimod HCl, fingolimod hydrochloride]
[2]
  peak to trough fluctuations, non-phosphorylated fingolimod: ≤ 20%
  peak to trough fluctuations, phosphorylated (active) form of fingolimod: ≤ 45%

## CCCCCCCCc1ccc(CCC(N)(CO)CO)cc1 [fingolimod, 2-amino-2-[2-(4-octylphenyl)ethyl]propane-1,3-diol]
[3]
  detection of fingolimod in the receptor solutions: not detected
[4]; Duro-Tak 87-9301 adhesive
  solubility of fingolimod in adhesive: less than 1%
[4]; PIB adhesive
  solubility of fingolimod in the adhesive: less than 1%
[4]; acrylate polymer adhesive Duro-Tak 900A
  solubility of fingolimod in the adhesive: less than 1%
